Measurements as given in patent US20230192722A1, “SALTS AND SOLID FORMS OF AN FGFR INHIBITOR AND PROCESSES OF PREPARING THEREOF” (Incyte Corporation, priority 2021, published 2023).

Experiments:
Assay type in all cases: physicochemical
[1] = Solubility measurement of Compound 1 Phosphate, saturated in different solvent systems, measured by HPLC
Protocol: The Compound 1 Phosphate sample was saturated in different solvent systems (Table 4) at 25° C. and 50° C., respectively. Each solubility was measured by HPLC.

[2] = Phase equilibration of form mixtures, relative stability of Compound 1 Phosphate forms (XRPD); conditions: mixture of Forms I, II
Protocol: The relative stability of the three forms (Forms I, II, and III) as well as amorphous form of Compound 1 Phosphate studied and compared by phase equilibration of mixture experiments in EtOH and in a mixture solvent of EtOH/H2O (9/1). As summarized in Table 16, Compound 1 Phosphate (Form I) was mixed and slurred with other forms in EtOH and in a mixed solvent of EtOH/H2O (9/1) at 50° C. for 6 h respectively.

[3] = Solubility measurement of Compound 1 Phosphate, saturated in different solvent systems, measured by HPLC; conditions: DCM, 50° C. column, measured at 40° C.

**Q.** For `COc1cc2[nH]nc(-c3ccc(N4CCN5C[C@H](O)C[C@H]5C4)nc3)c2nc1-c1cccc(C)c1C.O=P(O)(O)O` [Compound 1 Phosphate, (7R,8aS)-2-(5-(5-(2,3-dimethylphenyl)-6-methoxy-1H-pyrazolo[4,3-b]pyridin-3-yl)pyridin-2-yl)octahydropyrrolo[1,2-a]pyrazin-7-ol phosphate], which Solubility ([1]; 1,4-dioxane, 25° C.) is on record?
**A.** 150 µg/mL

**Q.** What about the Solubility ([1]; 1,4-dioxane, 50° C.) of the same compound?
**A.** 230 µg/mL

**Q.** What about the Solubility ([1]; 2-Butanone, 25° C.) of the same compound?
**A.** 100 µg/mL

**Q.** And the Solubility ([1]; 2-Butanone, 50° C.)?
**A.** 130 µg/mL

**Q.** And the Solubility ([1]; Acetone, 25° C.)?
**A.** 70 µg/mL

**Q.** What about the Solubility ([1]; Acetone, 50° C.) of the same compound?
**A.** 100 µg/mL

**Q.** And the Solubility ([1]; CH3CN, 25° C.)?
**A.** <10 µg/mL

**Q.** And the Solubility ([1]; CH3CN, 50° C.)?
**A.** 10 µg/mL

**Q.** What about the Solubility ([1]; CHCl3, 25° C.) of the same compound?
**A.** 60 µg/mL

**Q.** And the Solubility ([1]; CHCl3, 50° C.)?
**A.** 130 µg/mL

**Q.** And the Solubility ([1]; DCM, 25° C.)?
**A.** 30 µg/mL

**Q.** And the Solubility ([1]; DMF, 25° C.)?
**A.** 14410 µg/mL

**Q.** And the Solubility ([1]; DMF, 50° C.)?
**A.** 19060 µg/mL

**Q.** What about the Solubility ([1]; DMSO, 25° C.) of the same compound?
**A.** 33740 µg/mL

**Q.** And the Solubility ([1]; DMSO, 50° C.)?
**A.** 44990 µg/mL

**Q.** And the Solubility ([1]; EtOAc, 25° C.)?
**A.** 50 µg/mL

**Q.** What about the Solubility ([1]; EtOAc, 50° C.) of the same compound?
**A.** 60 µg/mL

**Q.** And the Solubility ([1]; EtOH, 25° C.)?
**A.** 530 µg/mL

**Q.** What about the Solubility ([1]; EtOH, 50° C.) of the same compound?
**A.** 680 µg/mL

**Q.** What about the Solubility ([1]; Ethyl formate, 25° C.) of the same compound?
**A.** 120 µg/mL

**Q.** What about the Solubility ([1]; Ethyl formate, 50° C.) of the same compound?
**A.** 140 µg/mL

**Q.** And the Solubility ([1]; H2O, 25° C.)?
**A.** 260 µg/mL

**Q.** And the Solubility ([1]; H2O, 50° C.)?
**A.** 1100 µg/mL

**Q.** And the Solubility ([1]; Heptane, 25° C.)?
**A.** <10 µg/mL

**Q.** And the Solubility ([1]; Heptane, 50° C.)?
**A.** <10 µg/mL

**Q.** And the Solubility ([1]; IPA, 25° C.)?
**A.** 230 µg/mL

**Q.** And the Solubility ([1]; IPA, 50° C.)?
**A.** 280 µg/mL

**Q.** What about the Solubility ([1]; IPAc, 25° C.) of the same compound?
**A.** 20 µg/mL

**Q.** What about the Solubility ([1]; IPAc, 50° C.) of the same compound?
**A.** 30 µg/mL

**Q.** And the Solubility ([1]; MIBK, 25° C.)?
**A.** 160 µg/mL

**Q.** What about the Solubility ([1]; MIBK, 50° C.) of the same compound?
**A.** 160 µg/mL

**Q.** What about the Solubility ([1]; MTBE, 25° C.) of the same compound?
**A.** 60 µg/mL

**Q.** And the Solubility ([1]; MTBE, 50° C.)?
**A.** 70 µg/mL

**Q.** What about the Solubility ([1]; MeOEtOH, 25° C.) of the same compound?
**A.** 4140 µg/mL

**Q.** And the Solubility ([1]; MeOEtOH, 50° C.)?
**A.** 5570 µg/mL

**Q.** And the Solubility ([1]; MeOH, 25° C.)?
**A.** 2260 µg/mL

**Q.** What about the Solubility ([1]; MeOH, 50° C.) of the same compound?
**A.** 2440 µg/mL

**Q.** And the Solubility ([1]; THF, 25° C.)?
**A.** 60 µg/mL

**Q.** And the Solubility ([1]; THF, 50° C.)?
**A.** 70 µg/mL

**Q.** And the Solubility ([1]; Toluene, 25° C.)?
**A.** <10 µg/mL

**Q.** And the Solubility ([1]; Toluene, 50° C.)?
**A.** 20 µg/mL

**Q.** And the “Solubility (almost insoluble)” value ([1]; in CH3CN, CHCl3, DCM, 1,4-dioxane, MIBK, toluene, THF, acetone, n-BuOH, MTBE, EtOH, EtOAc, ethyl formate, heptane, iso-butyl acetate, IPAc, n-PrOH, IPA, MEK at 25° C. and 50° C., and in H2O at 25° C.)?
**A.** < 1000 µg/mL

**Q.** What about the “Solubility (relatively good solubility)” value ([1]; in DMF and DMSO, at both 25° C. and 50° C.) of the same compound?
**A.** > 10000 µg/mL

**Q.** And the “Solubility (slightly soluble)” value ([1]; in MeOH and MeOEtOH at 25° C. and 50° C., and in H2O at 50° C.)?
**A.** 1000 to 10000 µg/mL

**Q.** What about the Solubility ([1]; iso-Butyl acetate, 25° C.) of the same compound?
**A.** 110 µg/mL

**Q.** What about the Solubility ([1]; iso-Butyl acetate, 50° C.) of the same compound?
**A.** 150 µg/mL

**Q.** And the Solubility ([1]; n-BuOH, 25° C.)?
**A.** 360 µg/mL

**Q.** And the Solubility ([1]; n-BuOH, 50° C.)?
**A.** 470 µg/mL

**Q.** What about the Solubility ([1]; n-PrOH, 25° C.) of the same compound?
**A.** 400 µg/mL

**Q.** And the Solubility ([1]; n-PrOH, 50° C.)?
**A.** 400 µg/mL

**Q.** What about the “Product Solid Form” value ([2]; III and Amorphous slurried in EtOH at 50° C. for 6 h) of the same compound?
**A.** transformed to Form I

**Q.** And the “Product Solid Form” value ([2]; III and Amorphous slurried in EtOH/H2O (9/1) at 50° C. for 6 h)?
**A.** transformed to Form I

**Q.** And the Solubility [3]?
**A.** 0.05 (40° C.) mg/mL
